We go through five compounds from patent publication US7189849B2, “Synthesis of acyclic nucleoside derivatives” (Medivir AB, priority 1997, dated 2007).

Series [1] in a line: Bioavailability testing in rats (24 h urinary H2G recovery). It is filed as in vivo. The method, then: The bioavailability of compounds of the invention were compared to the parent compound H2G and other H2G derivatives in a rat model. Compounds of the invention and comparative compounds were administered, per oral (by catheter into the stomach), to multiples of three individually weighed animals to give 0.1 mmol/kg of the dissolved prodrug in an aqueous (Example 4, 5, Comparative example 1–3, 5, 8), peanut oil (Comparative examples 4, 9, 10) or propylene glycol (Example 1–3, 6–12, 17, Comparative example 6, 7) vehicle dependent on the solubility of the test compound ingredient. The animals were fasted from 5 hours before to approximately 17 hours after administration and were maintained in metabolic cages. Urine was collected for the 24 hours following administration and frozen until analysis. H2G was analysed in the urine using the HPLC/UV assay of Stahle & Oberg, Antimicrob Agents Chemother. 36 No 2, 339–342 (1992), modified as follows: samples upon thawing are diluted 1:100 in aq dist H2O and filtered through an amicon filter with centrifugation at 3000 rpm for 10 minutes. Duplicate 30 μl samples are chromatographed on an HPLC column; Zorbax SB-C18; 75×4.6 mm; 3.5 micron; Mobile phase 0.05M NH4PO4, 3–4% methanol, pH 3.3–3.5; 0.5 ml/min; 254 nm, retention time for H2G at MeOH 4% and pH 3.33, ˜12.5 min. Bioavailability is calculated as the measured H2G recovery from each animal averaged over at least three animals and expressed as a percentage of the averaged 24 hour urinary H2G recovery from a group of 4 individually weighed rats respectively injected i.v. jugularis with 0.1 mmol/kg H2G in a Ringer's buffer vehicle and analysed as above.
Comparative example 1 (H2G) was from the same batch as used for preparation of Examples 1 to 12. The preparation of Comparative example 2 (monoVal-H2G) and 3 (diVal-H2G) are shown in Examples 20 and 23. […] Comparative examples 5 & 8 (Val/Ac H2G) were prepared analogously to Example 4 using acetic anhydride with relevant monovaline H2G. Comparative example 6 (Ala/stearoyl H2G) was prepared analogously to Example 6 using N-t-Boc-L-alanine in step 4. Comparative example 7 (Gly/decanoyl) was prepared analogously to Example 5 but using the step a) intermediate made with N-t-Boc-L-glycine. The preparation of Comparative examples 9 and 10 is shown in Examples 24 and 25 respectively.

Series [2] can be described thus: Plasma concentration assay in rats (H2G AUC oral vs i.v.). It counts as in vivo, male Sprague Dawley derived rats. Conditions: Table 1B; plasma drug assay in rats, 10 mg/kg oral in propylene glycol, H2G AUC vs 10 mg/kg i.v. H2G. The method, then:
A plasma concentration assay was done in male Sprague Dawley derived rats. The animals were fasted overnight prior to dosing but were permitted free access to water. Each of the compounds evaluated was prepared as a solution/suspension in propylene glycol at a concentration corresponding to 10 mg H2G/ml and shaken at room temperature for eight hours. Groups of rats (at least 4 rats in each group) received a 10 mg/kg (1 ml/kg) oral dose of each of the compounds; the dose was administered by gavage. At selected time points after dosing (0.25, 0.5, 1, 1.5, 2, 4, 6, 9, 12, 15, and 24 hours after dosing), heparinized blood samples (0.4 ml/sample) were obtained from a tail vein of each animal. The blood samples were immediately chilled in an ice bath. Within two hours of collection, the plasma was separated from the red cells by centrifugation and frozen till analysis. The components of interest were separated from the plasma proteins using acetonitrile precipitation. Following lyophilisation, and reconstitution, the plasma concentrations were determined by reverse phase HPLC with fluorescence detection. The oral uptake of H2G and other test compounds was determined by comparison of the H2G area under the curve derived from the oral dose compared to that obtained from a 10 mg/kg intravenous dose of H2G, administered to a separate group of rats. The results are depicted in Table 1B above.

The subject of series [3] is Herpes simplex virus-1 (HSV-1). Put plainly: Antiviral activity in HSV-1-infected mouse (survival). It is filed as in vivo, mice. Conditions: 21 and 83 mg/kg three times daily p.o. for 5 days, relative to an equivalent dose of acyclovir. The method, then: Herpes simplex virus-1 (HSV-1)-infected mouse serves as an animal model to determine the efficacy of antiviral agents in vivo. Mice inoculated intraperitoneally with HSV-1 at 1000 times the LD50 were administered either with a formulation comprising the currently marketed anti-herpes agent acyclovir (21 and 83 mg/kg in a 2% propylene glycol in sterile water vehicle, three times daily, p.o.) or the compound of Example 29 (21 and 83 mg/kg in a 2% propylene glycol in sterile water vehicle, three times daily, p.o.) for 5 consecutive days beginning 5 hours after inoculation. The animals were assessed daily for deaths. […] In the legend, the compound of the invention is denoted Ex.29 and acyclovir is denoted ACV.

[4] abbreviates: Table 2, rats, 0.1 mmol/kg per oral, 24 hour urinary H2G recovery as percentage of that after 0.1 mmol/kg H2G i.v.

Structures are written as SMILES.

In turn, `CCCCCCCCCCCCCCCCCC(=O)OCC[C@@H](CO)Cn1cnc2c(=O)[nH]c(N)nc21` [Comparative Example 10] came in with a Bioavailability in series [1] (setting [4]) of 7%.

For `Nc1nc2c(ncn2CC(CO)CCO)c(=O)[nH]1` (stereo not shown) [Comparative example 1, 9-[4-hydroxy-(2-hydroxymethyl)butyl]guanine, reference compound], the Bioavailability in series [1] (Table 1A, urinary recovery assay of H2G from rats, oral, see Biological Example 1) was 8%; in series [1] (setting [4]), 8%; in series [2] it was 3.8%. As to `CCCCCCCCCCCCCCCCCC(=O)OC[C@H](CCOC(=O)[C@@H](N)[C@@H](C)CC)Cn1cnc2c(=O)[nH]c(N)nc21` [Example 7], in series [1] (setting [4]), the Bioavailability is 53%. In the case of `CC(=O)CCCC(=O)OC[C@H](CCOC(=O)[C@@H](N)C(C)C)Cn1cnc2c(=O)[nH]c(N)nc21` [Example 10], in series [1] (setting [4]), the Bioavailability is 52%.

Turning to `CCCCCCCCCCCCCCCCCC(=O)OC[C@H](CCOC(=O)[C@@H](N)C(C)C)Cn1cnc2c(=O)[nH]c(N)nc21.Cl` [Example 29, (R)-9-[(2-stearoyloxymethyl)-4-(L-valyloxy)butyl]guanine monohydrochloride], in series [3], the “percentage of mice surviving the HSV-1 infection (FIG. 2)” value is “significantly greater”.
